Several values for one entry are separate records, joined by “and”; a condition that tells them apart may be missing. Equal values may be shown once. Entries after “also recorded” stand apart in the source; their conditions may differ.
Assays:
[1] = target: T1, PKCζ (Homo sapiens, UniProt Q05513); experiment: Lance-FRET kinase assay, PKCζ; assay type: biochemical; conditions: Figure 1B
T1 construct: purchased SignalChem Biotech
Description: (§1) Kinase assays. CP612 was assayed against His-AVI–tagged human PKCε (1 nM) produced in Sf9 cells, and ROCK1 (Carna Biosciences; 5 nM) using the Lance-FRET kinase assay system (PerkinElmer Revvity). Other human recombinant PKCs (SignalChem Biotech) were assayed in triplicate at the following concentrations: PKCβII 1.6 nM, PKCγ 500 pM, PKCδ 5 nM, PKCθ 500 pM, and PKCζ 500 pM. PKCs were incubated in a 15 μL reaction volume with kinase buffer (20 mM Tris-HCL [pH 7.4], 10 mM MgCl2, 0.25 mM EGTA, 0.1 mg/mL BSA, and 0.15% Triton X-100), 50 nM ULight-labeled CREBtide […] (PerkinElmer, TRF0107, Revvity), and test compound. […] After incubation at 27°C for another 60 minutes, phosphorylation was detected using a FlexStation 3 Microplate Reader (Molecular Devices) in LANCE TR-FRET mode (excitation = 340 nm, emission = 665 nm) and expressed as relative fluorescence units (RFU). The percentage of inhibition was calculated as: (signal without test compound − signal with test compound)/(signal without test compound − signal without ATP) × 100. […]
(§2) Kinase assays used 11-point concentration-response curves and results were analyzed by nonlinear regression using Prism 9 (GraphPad Software) to determine IC50 values. […] Scores for pain threshold, conditioned place preference, and self-administration were analyzed by ANOVA using the following factors. […]

[2] = target: T2, CLK1 (CDC Like Kinase 1) (Homo sapiens, UniProt P49759); experiment: scanMax kinome panel, CLK1; assay type: binding; conditions: 200 nM CP612; read-out: scanMax % of control, CLK1
T2 construct: purchased Eurofins-DiscoverX
T2 sequence (P49759 whole entry): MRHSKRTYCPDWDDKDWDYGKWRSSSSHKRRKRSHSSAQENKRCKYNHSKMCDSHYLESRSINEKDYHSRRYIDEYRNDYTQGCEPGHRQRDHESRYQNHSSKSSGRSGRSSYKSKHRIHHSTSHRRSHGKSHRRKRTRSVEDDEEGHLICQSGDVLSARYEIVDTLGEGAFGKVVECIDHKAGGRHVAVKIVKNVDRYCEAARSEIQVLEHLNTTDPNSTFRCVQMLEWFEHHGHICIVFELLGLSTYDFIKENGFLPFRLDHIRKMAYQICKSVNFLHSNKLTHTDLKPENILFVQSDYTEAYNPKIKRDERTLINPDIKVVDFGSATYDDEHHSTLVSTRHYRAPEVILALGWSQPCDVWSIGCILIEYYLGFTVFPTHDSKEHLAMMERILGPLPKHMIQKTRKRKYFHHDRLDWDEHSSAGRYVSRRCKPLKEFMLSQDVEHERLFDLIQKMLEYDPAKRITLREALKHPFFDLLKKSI
Description: (§3) CP612 was screened for kinome specificity at 200 nM against 468 kinases using the scanMax assay panel from Eurofins-DiscoverX. CP612 inhibited 10 other WT kinases besides PKCε, all to < 10% of control: CLK1 (CDC Like Kinase 1), CLK4, PKN1 (Protein kinase N1), PKN2, PKCδ, PKCη, PKCθ, PRKG2 (Protein Kinase CGMP-Dependent 2), ROCK1, and ROCK2.

[3] = target: T3, CLK4 (Homo sapiens, UniProt Q9HAZ1); experiment: scanMax kinome panel, CLK4; assay type: binding; conditions: 200 nM CP612; read-out: scanMax % of control, CLK4
T3 construct: purchased Eurofins-DiscoverX
T3 sequence (Q9HAZ1 whole entry): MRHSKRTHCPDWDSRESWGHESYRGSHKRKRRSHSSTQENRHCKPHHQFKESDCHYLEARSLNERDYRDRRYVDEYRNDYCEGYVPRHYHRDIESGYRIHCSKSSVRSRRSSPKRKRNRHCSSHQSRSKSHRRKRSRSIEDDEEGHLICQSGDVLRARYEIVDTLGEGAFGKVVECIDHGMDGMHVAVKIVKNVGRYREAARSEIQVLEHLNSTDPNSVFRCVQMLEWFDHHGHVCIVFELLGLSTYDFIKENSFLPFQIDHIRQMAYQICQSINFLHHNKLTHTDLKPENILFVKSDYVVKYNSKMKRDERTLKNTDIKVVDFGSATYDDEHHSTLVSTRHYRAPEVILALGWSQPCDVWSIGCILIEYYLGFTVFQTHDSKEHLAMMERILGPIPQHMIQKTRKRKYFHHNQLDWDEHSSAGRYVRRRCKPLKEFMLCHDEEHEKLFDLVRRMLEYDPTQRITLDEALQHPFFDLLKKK
Description: as §3

[4] = target: T4, PKN2 (Homo sapiens, UniProt Q16513); experiment: scanMax kinome panel, PKN2; assay type: binding; conditions: 200 nM CP612
T4 construct: purchased Eurofins-DiscoverX
T4 sequence (Q16513 whole entry): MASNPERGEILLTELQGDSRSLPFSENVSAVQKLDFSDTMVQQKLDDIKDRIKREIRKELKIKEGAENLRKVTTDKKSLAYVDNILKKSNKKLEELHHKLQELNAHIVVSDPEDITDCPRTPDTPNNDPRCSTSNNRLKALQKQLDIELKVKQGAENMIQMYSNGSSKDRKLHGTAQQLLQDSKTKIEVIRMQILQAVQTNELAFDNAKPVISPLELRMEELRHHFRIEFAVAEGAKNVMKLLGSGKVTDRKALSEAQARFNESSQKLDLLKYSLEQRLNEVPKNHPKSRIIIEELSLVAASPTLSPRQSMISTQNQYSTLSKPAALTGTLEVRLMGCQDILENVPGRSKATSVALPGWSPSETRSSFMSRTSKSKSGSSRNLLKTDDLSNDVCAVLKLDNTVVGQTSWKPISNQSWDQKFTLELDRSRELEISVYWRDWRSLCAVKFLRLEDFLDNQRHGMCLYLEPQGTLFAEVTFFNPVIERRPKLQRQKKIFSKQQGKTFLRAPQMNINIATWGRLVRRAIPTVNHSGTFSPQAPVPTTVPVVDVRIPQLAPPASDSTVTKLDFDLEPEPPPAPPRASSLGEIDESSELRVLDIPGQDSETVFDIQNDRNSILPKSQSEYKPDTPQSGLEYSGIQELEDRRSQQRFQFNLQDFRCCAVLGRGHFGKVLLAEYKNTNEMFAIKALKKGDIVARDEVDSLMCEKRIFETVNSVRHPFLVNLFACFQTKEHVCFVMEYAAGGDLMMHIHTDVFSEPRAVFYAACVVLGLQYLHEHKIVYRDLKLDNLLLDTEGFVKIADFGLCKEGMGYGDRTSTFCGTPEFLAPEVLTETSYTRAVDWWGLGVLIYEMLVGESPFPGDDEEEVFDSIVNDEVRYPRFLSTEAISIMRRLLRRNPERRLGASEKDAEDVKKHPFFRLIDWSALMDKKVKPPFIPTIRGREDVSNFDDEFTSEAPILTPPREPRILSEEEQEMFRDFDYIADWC
Description: as §3

[5] = target: T5, ROCK2 (Homo sapiens, UniProt O75116); experiment: scanMax kinome panel, ROCK2; assay type: binding; conditions: 200 nM CP612
T5 construct: purchased Eurofins-DiscoverX
T5 sequence (O75116 whole entry): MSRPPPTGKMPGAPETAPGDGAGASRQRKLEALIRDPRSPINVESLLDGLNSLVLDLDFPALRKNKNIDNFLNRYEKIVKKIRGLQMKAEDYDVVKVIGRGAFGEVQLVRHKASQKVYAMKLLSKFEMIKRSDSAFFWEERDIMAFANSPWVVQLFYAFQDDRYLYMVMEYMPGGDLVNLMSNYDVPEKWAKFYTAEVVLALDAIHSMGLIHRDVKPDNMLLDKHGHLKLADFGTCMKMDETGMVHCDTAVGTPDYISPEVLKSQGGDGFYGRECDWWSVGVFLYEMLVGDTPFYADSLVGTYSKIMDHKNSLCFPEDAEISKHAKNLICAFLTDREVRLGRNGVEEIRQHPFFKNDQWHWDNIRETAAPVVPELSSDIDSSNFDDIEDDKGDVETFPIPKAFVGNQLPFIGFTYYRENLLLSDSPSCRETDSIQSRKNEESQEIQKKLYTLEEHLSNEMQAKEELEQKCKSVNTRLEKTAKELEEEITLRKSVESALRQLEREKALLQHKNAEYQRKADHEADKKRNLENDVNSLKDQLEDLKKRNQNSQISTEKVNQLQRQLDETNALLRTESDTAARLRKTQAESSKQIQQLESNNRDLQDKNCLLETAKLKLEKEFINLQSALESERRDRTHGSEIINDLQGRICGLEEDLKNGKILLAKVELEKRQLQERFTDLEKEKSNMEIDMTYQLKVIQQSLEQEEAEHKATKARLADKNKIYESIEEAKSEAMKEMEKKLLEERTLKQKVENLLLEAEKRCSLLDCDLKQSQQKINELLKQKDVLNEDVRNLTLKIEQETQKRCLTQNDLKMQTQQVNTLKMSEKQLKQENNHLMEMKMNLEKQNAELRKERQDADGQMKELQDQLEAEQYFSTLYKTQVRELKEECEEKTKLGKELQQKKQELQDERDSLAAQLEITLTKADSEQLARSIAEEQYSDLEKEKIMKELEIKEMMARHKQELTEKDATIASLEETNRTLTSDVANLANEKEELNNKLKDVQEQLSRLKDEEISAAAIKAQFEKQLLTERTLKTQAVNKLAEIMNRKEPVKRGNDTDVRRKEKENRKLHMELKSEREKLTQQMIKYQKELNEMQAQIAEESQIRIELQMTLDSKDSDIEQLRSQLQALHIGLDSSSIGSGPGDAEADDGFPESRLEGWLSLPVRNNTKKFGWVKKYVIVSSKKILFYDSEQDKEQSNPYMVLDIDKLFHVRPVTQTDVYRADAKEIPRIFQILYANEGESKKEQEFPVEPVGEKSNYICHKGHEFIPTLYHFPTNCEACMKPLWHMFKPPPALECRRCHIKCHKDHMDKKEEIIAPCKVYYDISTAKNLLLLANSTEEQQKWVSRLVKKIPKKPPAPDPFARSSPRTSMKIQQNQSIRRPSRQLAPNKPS
Description: as §3

[6] = test system: hyperalgesia induced by morphine withdrawal; experiment: Reversal of hyperalgesia due to morphine withdrawal, von Frey SUDO; assay type: in vivo, C57BL/6J mice
From the text: We next tested if CP612 reverses hyperalgesia induced by withdrawal from repeated administration of morphine in male and female C57BL/6J mice. Since the pain thresholds of mice receiving repeated administration of saline were not affected by treatment with vehicle or CP612 injection (Figure 6), mice in this experiment were only treated with morphine. […] Both male and female mice that received vehicle continued to show hyperalgesia up to 4 weeks after the last injection of morphine.

[7] = target: T6, PKCδ (Homo sapiens, UniProt Q05655); experiment: Lance-FRET kinase assay, PKCδ; assay type: biochemical; parameters: purchased SignalChem Biotech
T6 sequence (Q05655 whole entry): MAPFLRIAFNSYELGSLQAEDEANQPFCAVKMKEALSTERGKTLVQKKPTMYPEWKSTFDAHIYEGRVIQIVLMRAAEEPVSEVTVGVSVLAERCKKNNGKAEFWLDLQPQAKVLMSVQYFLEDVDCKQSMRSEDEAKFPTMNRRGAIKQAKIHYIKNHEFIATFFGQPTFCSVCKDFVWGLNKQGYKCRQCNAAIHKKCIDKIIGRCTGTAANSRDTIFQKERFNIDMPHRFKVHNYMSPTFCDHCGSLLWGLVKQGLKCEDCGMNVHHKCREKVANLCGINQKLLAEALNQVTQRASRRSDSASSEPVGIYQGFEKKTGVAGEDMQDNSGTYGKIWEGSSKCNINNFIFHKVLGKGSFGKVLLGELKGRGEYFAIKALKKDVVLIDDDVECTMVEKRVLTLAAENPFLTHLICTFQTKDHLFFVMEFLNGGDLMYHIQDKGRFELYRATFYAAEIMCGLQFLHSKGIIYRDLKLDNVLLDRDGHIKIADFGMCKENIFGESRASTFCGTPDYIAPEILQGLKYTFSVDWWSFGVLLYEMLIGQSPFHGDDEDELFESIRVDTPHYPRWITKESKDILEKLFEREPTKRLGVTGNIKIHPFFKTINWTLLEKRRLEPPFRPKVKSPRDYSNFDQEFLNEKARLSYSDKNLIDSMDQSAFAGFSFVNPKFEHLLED
Description: as §1, §2

[8] = target: T7, PKCε (Homo sapiens, UniProt Q02156); experiment: scanMax kinome panel (Eurofins-DiscoverX), PKCε; assay type: binding; parameters: purchased Eurofins-DiscoverX; conditions: 200 nM CP612
T7 sequence (Q02156 1-737): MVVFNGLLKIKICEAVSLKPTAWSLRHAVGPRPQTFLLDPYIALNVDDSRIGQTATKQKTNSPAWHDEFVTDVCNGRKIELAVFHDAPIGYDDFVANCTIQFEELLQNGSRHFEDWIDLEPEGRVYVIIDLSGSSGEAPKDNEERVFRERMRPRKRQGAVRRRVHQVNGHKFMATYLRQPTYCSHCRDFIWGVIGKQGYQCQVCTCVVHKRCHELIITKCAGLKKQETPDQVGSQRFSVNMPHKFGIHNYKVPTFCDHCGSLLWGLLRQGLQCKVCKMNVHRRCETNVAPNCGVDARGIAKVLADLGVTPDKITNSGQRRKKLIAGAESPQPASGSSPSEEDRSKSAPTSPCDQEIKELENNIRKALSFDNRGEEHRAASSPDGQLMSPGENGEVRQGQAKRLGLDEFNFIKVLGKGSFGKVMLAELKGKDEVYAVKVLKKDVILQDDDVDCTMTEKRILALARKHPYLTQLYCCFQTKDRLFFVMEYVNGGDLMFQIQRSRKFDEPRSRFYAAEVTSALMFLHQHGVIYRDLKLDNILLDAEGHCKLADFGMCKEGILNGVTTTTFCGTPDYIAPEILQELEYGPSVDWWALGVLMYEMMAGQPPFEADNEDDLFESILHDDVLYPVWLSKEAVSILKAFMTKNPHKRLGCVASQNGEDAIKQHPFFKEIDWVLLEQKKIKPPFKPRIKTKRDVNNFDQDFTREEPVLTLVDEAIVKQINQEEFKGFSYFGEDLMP
Description: as §3

[9] = target: T6, PKCδ; experiment: scanMax kinome panel, PKCδ; assay type: binding; parameters: purchased Eurofins-DiscoverX; conditions: 200 nM CP612; read-out: scanMax % of control, PKCδ
Description: as §3

[10] = test system: PKCε-dependent mechanical hyperalgesia; experiment: Hyperalgesia induced by the PKCε activator ψεRACK, Randall-Selitto paw pressure test; conditions: for Force applied that led to paw withdrawal: one paw
Description: Thirty minutes later, rats were administered vehicle (5 μL, intradermally) or CP612 (1 μg/5 μL, intradermally) (Figure 3). We measured nociceptive thresholds at the same site, at baseline, 30 minutes after the administration of ψεRACK (time 0) and 15, 30, and 60 minutes after the administration of vehicle or CP612.
Mechanical nociceptive thresholds in rats were quantified by the Randall-Selitto paw pressure test using an Ugo Basile Analgesy-Meter. This device applies a linearly increasing mechanical force to the dorsum or plantar region of the rat hind paw. The mechanical nociceptive threshold is defined as the force in grams at which a rat withdraws its paw. […] For studies testing nociceptive thresholds after the PKCε activator ψεRACK, or after the cancer chemotherapeutic drug paclitaxel, rats were placed into cylindrical acrylic restrainers for 40 minutes before starting each session. The restrainers had lateral ports to allow access to the hind paw, as previously described ([35]), and pain thresholds were measured by applying force to the dorsum of the hind paw. Prior to starting experiments, baseline mechanical nociceptive threshold was obtained as the mean of 2–3 readings on 1 hind paw in each rat.

T1 sequence (Q05513 whole entry): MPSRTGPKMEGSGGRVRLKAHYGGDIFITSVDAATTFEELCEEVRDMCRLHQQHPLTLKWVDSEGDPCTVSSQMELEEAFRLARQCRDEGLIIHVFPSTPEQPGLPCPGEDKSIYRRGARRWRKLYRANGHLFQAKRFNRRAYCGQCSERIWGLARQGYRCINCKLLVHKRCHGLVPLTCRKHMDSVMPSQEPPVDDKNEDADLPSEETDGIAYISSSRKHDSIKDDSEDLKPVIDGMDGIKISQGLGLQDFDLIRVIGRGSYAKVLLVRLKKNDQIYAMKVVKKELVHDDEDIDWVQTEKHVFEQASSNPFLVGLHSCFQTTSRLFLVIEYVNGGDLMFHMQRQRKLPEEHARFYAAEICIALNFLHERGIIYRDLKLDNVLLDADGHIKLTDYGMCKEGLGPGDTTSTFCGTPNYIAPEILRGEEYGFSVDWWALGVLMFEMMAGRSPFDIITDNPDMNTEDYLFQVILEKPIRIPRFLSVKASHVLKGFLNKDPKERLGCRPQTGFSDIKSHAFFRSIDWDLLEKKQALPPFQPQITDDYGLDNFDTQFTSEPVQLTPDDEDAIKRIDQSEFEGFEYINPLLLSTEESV

In the case of `N[C@H](CNC(=O)C1(c2ccc(Cl)cc2)CCCC1)c1ccc(C(=O)Nc2ccncc2)cc1` [CP612], the “Inhibition of atypical PKCζ” value [1] is reported as “did not inhibit”, the remaining binding at 0.2 µM [2] is reported as under 10% and the remaining binding at 0.2 µM [3] is reported as under 10%. For the same molecule, the “scanMax % of control, PKN2” value [4] was < 10 % of control, the “scanMax % of control, ROCK2” value [5] was < 10 % of control and the “Effect on established morphine-withdrawal hyperalgesia” value ([6]; male and female mice, CP612 20 mg/kg i.p. 2 weeks after last morphine injection) was “reversed”. For the same molecule, the “Duration of reversal of hyperalgesia” value ([6]; single dose CP612 20 mg/kg i.p.) was 2 weeks, the inhibition at 0.03 µM ([7]; 30 nM CP612, read-out: Inhibition of novel PKCs (PKCδ)) was over 50% and the IC50 ([7]; Figure 1B PKC isozyme panel) was 18.8 nM. The “scanMax result, PKCε” value [8] was “inhibited”, the remaining binding at 0.2 µM [9] was under 10% and the “Force applied that led to paw withdrawal” value ([10]; 0min (30 min after ψεRACK, before CP612)) was 90 grams and 100 grams and 96.7 grams. For the same molecule, the “Force applied that led to paw withdrawal” value ([10]; 5min after CP612 1µg/5µL intradermally) was 120 grams and 130 grams and 115 grams and 105 grams, the “Force applied that led to paw withdrawal” value ([10]; 10min after CP612 1µg/5µL intradermally) was 100 grams and 110 grams and 130 grams and 115 grams and 120 grams and 135 grams and the “Force applied that led to paw withdrawal” value ([10]; 15min after CP612 1µg/5µL intradermally) was 90 grams and 125 grams and 130 grams and 110 grams and 115 grams and 100 grams. For the same molecule, the “Force applied that led to paw withdrawal” value ([10]; 30min after CP612 1µg/5µL intradermally) was 120 grams and 123.3 grams and 125 grams and 115 grams, the “Force applied that led to paw withdrawal” value ([10]; 60min after CP612 1µg/5µL intradermally) was 105 grams and 110 grams and 115 grams and 130 grams and 120 grams and the “Force applied that led to paw withdrawal” value ([10]; baseline (before ψεRACK and CP612)) was 130 grams and 120 grams and 125 grams. For the same molecule, the “Effect on ψεRACK-induced hyperalgesia” value ([10]; male rats, CP612 1 μg/5 μL intradermally 30 min after ψεRACK, up to 60 minutes) was “reduced; also recorded: near-complete reversal; also recorded: attenuated”.
